Experimental findings from publication PMC6382696, “Drug Repurposing: The Anthelmintics Niclosamide and Nitazoxanide Are Potent TMEM16A Antagonists That Fully Bronchodilate Airways” (Frontiers in Pharmacology, 2019) are described below.

The target of this experiment is T1, hTMEM16A (abc) (Homo sapiens, UniProt Q5XXA6, DEL476-501).
T1 sequence (Q5XXA6 with tags, fused parts or gaps isoform Q5XXA6-5 DEL539-564): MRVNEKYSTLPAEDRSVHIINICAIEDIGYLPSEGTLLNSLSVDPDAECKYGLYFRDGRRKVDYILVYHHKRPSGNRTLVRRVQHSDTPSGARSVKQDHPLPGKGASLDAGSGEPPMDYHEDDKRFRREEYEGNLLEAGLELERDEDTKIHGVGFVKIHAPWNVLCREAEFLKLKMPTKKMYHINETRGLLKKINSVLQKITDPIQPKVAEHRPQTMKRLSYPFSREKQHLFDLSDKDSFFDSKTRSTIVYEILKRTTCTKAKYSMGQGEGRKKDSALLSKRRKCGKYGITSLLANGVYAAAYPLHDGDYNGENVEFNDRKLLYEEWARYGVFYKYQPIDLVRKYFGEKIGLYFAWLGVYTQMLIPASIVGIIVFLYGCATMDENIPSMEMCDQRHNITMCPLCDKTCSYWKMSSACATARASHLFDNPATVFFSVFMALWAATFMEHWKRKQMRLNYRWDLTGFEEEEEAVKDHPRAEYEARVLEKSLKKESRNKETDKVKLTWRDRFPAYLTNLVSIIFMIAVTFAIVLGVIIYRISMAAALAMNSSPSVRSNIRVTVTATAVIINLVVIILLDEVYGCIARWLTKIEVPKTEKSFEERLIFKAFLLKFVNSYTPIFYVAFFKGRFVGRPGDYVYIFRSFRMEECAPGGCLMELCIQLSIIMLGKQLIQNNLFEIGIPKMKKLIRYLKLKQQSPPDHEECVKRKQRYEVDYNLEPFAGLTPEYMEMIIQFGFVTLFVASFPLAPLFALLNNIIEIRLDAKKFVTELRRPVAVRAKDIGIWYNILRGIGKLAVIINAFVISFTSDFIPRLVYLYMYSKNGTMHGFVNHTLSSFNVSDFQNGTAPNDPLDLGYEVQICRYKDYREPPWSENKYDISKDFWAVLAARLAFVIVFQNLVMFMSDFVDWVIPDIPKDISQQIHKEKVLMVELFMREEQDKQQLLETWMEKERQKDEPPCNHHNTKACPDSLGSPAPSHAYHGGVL
As to the kind of experiment: IonWorks Barracuda perforated patch clamp, ionomycin-activated TMEM16A inward current. Particulars: 10 μM ionomycin, Vhold −30 mV. It is filed as cell-based. An excerpt: HEK293 cells stably expressing the human TMEM16A (abc) variant and CHO cells expressing the human CFTR gene were from ChanTest. The IonWorks Barracuda (IWB) procedure and data provided are from outsourced studies performed at ChanTest (Charles River Discovery, Cleveland, OH, United States) who were blinded as to the identity of the test articles or compounds provided by Amgen. As a control, benchmark inhibitors CFTRinh-172, GlyH-101 and benzbromarone were included amongst the blinded compounds submitted and performed as expected.
For IonWorks Barracuda studies on TMEM16A compounds, in brief eight test article concentrations were applied to naïve cells (n = 4, where n = the number of replicate wells/concentration) via steel needles of a 384-channel pipettor. Each application consists of addition of 20 μl of 2X concentrated test article solution to the total 40 μl final volume of the extracellular well of the Population Patch ClampTM (PPC) planar electrode. This addition is followed by mixing (one time) of the PPC well content. Duration of exposure to each test article concentration was at least 5 min. The electrophysiology procedure used: (a) Intracellular solution containing 50 mM CsCl, 90 mM CsF, 5 mM MgCl2, 1 mM EGTA, 10 mM HEPES, adjusted to pH 7.2 with CsOH; (b) Amphotericin B for patch perforation, where 30 mg/ml stock solution of amphotericin B in DMSO is added to internal solution to final concentration of 33.3 μg/ml; (c) Extracellular solution containing HEPES-buffered physiological saline (HBPS): 137 mM NaCl, 4 mM KCl, 1.8 mM CaCl2, 1 mM MgCl2, 10 mM HEPES, 10 mM glucose, adjusted to pH 7.4 with NaOH; and (d) Ionomycin stimulation of chloride currents where 10 μM ionomycin is added to all test solutions including vehicle and positive controls. […] After establishment of a whole-cell configuration via patch perforation (∼7–10 min exposure to amphotericin B), membrane currents were recorded using the on-board patch clamp amplifiers. […]

On to `N#Cc1c(C(F)(F)F)cc(O)n2c1nc1ccccc12` [1PBC], for which the “effect on ionomycin-activated inward current at −100 mV, perforated patch clamp” value is given as “robust inhibition”.
For the compound `CCc1oc2ccccc2c1C(=O)c1cc(Br)c(O)c(Br)c1` [Benzbromarone], the “effect on ionomycin-activated inward current at −100 mV, perforated patch clamp” value is “effective in blocking”.
As for `O=C(O)c1cccnc1Nc1cccc(C(F)(F)F)c1` [Niflumic Acid], the entry is “inhibition (not stimulation)”.
